The term pIC50 denotes −log10 of the IC50, conventionally taken in molar units.

Structures are written as SMILES. pIC50: −log10 of the molar value. Structures can show the parent of a compound that is named as a salt. Where two headings read alike, the source gives them in different places.

This assay relates to Guinea-pig PRP (platelet aggregation). The assay can be described thus: (A) In vitro antiplatelet aggregation effect in guinea pigs (PRP), Table IV-1. Type of assay: cell-based, guinea pig (Hartley male). The settings on record: Cavia porcellus, PRP 300,000/mm^3, 37° C. As for the experimental part:
Nine parts by volume of blood was collected from the abdominal artery of Hartley male guinea-pigs (weight: about 300 g) in syringes containing 1 part by volume of 3.8% sodium citrate. The blood thus obtained was centrifuged at 200×g for 10 minutes at room temperature to obtain platelet rich plasma (PRP). Furthermore, the residue was centrifuged at 2000×g for 15 minutes to obtain platelet poor plasma (PPP). The measurement was effected by diluting PRP with PPP to 300,000/mm^3. PRP and PPP were put in cuvettes, and the measurement range of transmittance was adjusted to 0% in the case of PRP and to 100% in the case of PPP. Thereafter, a test sample drug dissolved in H2 O:MeOH (1:2) was added to PRP. After the PRP was incubated at 37° C. at 1000 rpm for 2 minutes, an aggregating agent was added to record an aggregation curve. The antiplatelet aggregation effect of the test sample drug was expressed by the concentration (IC50 : μM) at which the aggregation of the control sample was 50% inhibited. […] The measurement of platelet aggregation was carried out by using NBS HEMA TRACER 601.
In vitro antiplatelet aggregation tests; (A) and (B) Tables IV-1 and 2 show antiplatelet aggregation effects of test compounds evaluated as IC50 values (μM). The compound Nos. in Table I should be referred to for the structures of the compounds.

The mark [1] stands for this setting: aggregating agent ADP, read-out: Guinea-pig PRP IC50, ADP.
Where [2] appears, read: aggregating agent collagen 1 to 2 μg/ml, read-out: Guinea-pig PRP IC50, Collagen.

With `CCOC(=O)CN(C=O)C1CCN(C(=O)c2c(-c3ccc(C(C)(C)C)cc3)n(C)n(-c3ccc(C(=N)N)cc3)c2=O)CC1` [compound 114], the pIC50 was 4.68 under setting [1] and 4.85 under setting [2].
Taken in the same sequence, the figures for `CCOC(=O)COCCNC(=O)c1c(-c2ccc(C(C)(C)C)cc2)n(C)n(-c2ccc(C(=N)N)cc2)c1=O` [compound 25] were 4.37 and 4.70.
In the case of `CCOC(=O)CN(C)C1CCN(C(=O)c2c(-c3ccc(C(C)(C)C)cc3)n(C)n(-c3ccc(C(=N)N)cc3)c2=O)CC1` [compound 116], the pIC50 under setting [2] is 4.05.
For the compound `Cn1c(-c2ccccc2)c(C(=O)N2CCC(OCC(=O)O)CC2)c(=O)n1-c1ccc(C(=N)N)cc1` [compound 17], the pIC50 is, setting by setting: under setting [1], 4.70; under setting [2], 4.64.
Taken in the same sequence, the figures for `Cn1c(-c2ccc(-c3ccccc3)cc2)c(C(=O)NC2CCN(CC(=O)O)CC2)c(=O)n1-c1ccc(C(=N)N)cc1` [compound 125] were 4.38 and 5.38.
As to `Cn1cc(C(=O)NCCCOCC(=O)O)c(=O)n1-c1ccc(C(=N)N)cc1` [compound 7], the pIC50 under setting [1] was 3.52.
`CCCCc1ccc(-c2c(C(=O)N3CCC(OCC(=O)OCC)CC3)c(=O)n(-c3ccc(C(=N)N)cc3)n2C)cc1` [compound 128]: the pIC50 is, setting by setting: under setting [1], 4.70; under setting [2], 5.15.
Taken in the same sequence, the figures for `Cn1c(-c2ccc(C(C)(C)C)cc2)c(C(=O)NCCOCC(=O)O)c(=O)n1-c1ccc(C(=N)N)cc1` [compound 24] were 4.34 and 4.72.
Taken in the same sequence, the figures for `CCOC(=O)COC1CCN(C(=O)c2cn(C)n(-c3ccc(C(=N)N)cc3)c2=O)CC1` [Compound No. 11] were 4.51 and 4.77.
Taken in the same sequence, the figures for `CCOC(=O)COCCNC(=O)c1c(-c2ccc(-c3ccccc3)cc2)n(C)n(-c2ccc(C(=N)N)cc2)c1=O` [compound 20] were 4.52 and 4.92.
Turning to `CN(CC(=O)O)C1CCN(C(=O)c2c(-c3ccc(C(C)(C)C)cc3)n(C)n(-c3ccc(C(=N)N)cc3)c2=O)CC1` [compound 115], the pIC50 is 4.03 under setting [1] and 4.17 under setting [2].
`CCOC(=O)COC1CCN(C(=O)c2c(-c3ccc(-c4ccccc4)cc3)n(C)n(-c3ccc(C(=N)N)cc3)c2=O)CC1` [compound 23]: the pIC50 runs as follows: under setting [1], 4.77; under setting [2], 5.03.
Taken in the same sequence, the figures for `Cn1c(-c2ccc(C(C)(C)C)cc2)c(C(=O)NC2CCN(CC(=O)O)CC2)c(=O)n1-c1ccc(C(=N)N)cc1` [compound 109] were 5.47 and 5.40.
Take `CCOC(=O)CN1CCC(N(C)C(=O)c2c(-c3ccc(C(C)(C)C)cc3)n(C)n(-c3ccc(C(=N)N)cc3)c2=O)CC1` [compound 112]: the pIC50 by setting is: under setting [1], 4.43; under setting [2], 4.85.
Taken in the same sequence, the figures for `Cn1cc(C(=O)N2CCC(OCC(=O)O)CC2)c(=O)n1-c1ccc(C(=N)N)cc1` [Compound No. 10] were 4.46 and 4.77.
Regarding `CCOC(=O)COC1CCN(C(=O)c2c(-c3ccc(-c4ccc(Cl)cc4)cc3)n(C)n(-c3ccc(C(=N)N)cc3)c2=O)CC1` [Compound No. 2], the pIC50 runs as follows: under setting [1], 5.09; under setting [2], 5.41.
Taken in the same sequence, the figures for `CCOC(=O)CN1CCC(NC(=O)c2c(-c3ccc(-c4ccccc4)cc3)n(C)n(-c3ccc(C(=N)N)cc3)c2=O)CC1` [compound 126] were 4.12 and 5.12.
Taken in the same sequence, the figures for `CCOC(=O)CN1CCC(NC(=O)c2c(-c3ccc(C(C)(C)C)cc3)n(C)n(-c3ccc(C(=N)N)cc3)c2=O)CC1` [compound 110] were 5.30 and 5.51.
Taken in the same sequence, the figures for `CCOC(=O)COCCN(C)C(=O)c1c(-c2ccccc2)n(C)n(-c2ccc(C(=N)N)cc2)c1=O` [compound 15] were 3.94 and 4.24.
Turning to `Cn1c(-c2ccc(C(C)(C)C)cc2)c(C(=O)N2CCC(OCC(=O)O)CC2)c(=O)n1-c1ccc(C(=N)N)cc1` [Compound No. 28, 1-(4-amidinophenyl)-3-(4-t-butylphenyl)-4-([4-(carboxymethyloxy)-1-piperidinyl]carbonyl}-2-methyl-2H-pyrazol-5-one hydrochloride], the pIC50 runs as follows: under setting [1], 4.60; under setting [2], 4.77.
Consider `CN(C(=O)c1c(-c2ccc(C(C)(C)C)cc2)n(C)n(-c2ccc(C(=N)N)cc2)c1=O)C1CCN(CC(=O)O)CC1` [compound 111], for which the pIC50 under setting [1] was 4.96 and the pIC50 under setting [2] was 5.09.

The record behind these values is patent US5968967A, “Pyrazolones derivatives” (Nissan Chemical Industries, Ltd., priority 1995, dated 1999).
